{
  "source": "patent US10160738B2",
  "about": "“Neuroactive substituted cyclopent[a]anthracenes as modulators for GABA type-A receptors” (priority 2013, dated 2018)",
  "key": {"[1]": {"target": "picrotoxin binding site on GABAA receptors", "assay": "[35S]-TBPS displacement (inhibition of [35S]-TBPS binding)", "conditions": "non-competitive displacement; duplicate experiments in triplicate; ± SEM", "procedure": "The IC50 values for non-competitive displacers of [^35S]-TBPS from the picrotoxin binding site on GABAA receptors are reported in Table 1.\nResults presented are from duplicate experiments performed in triplicate. Error limits are calculated as standard error of the mean. Methods used are known in the art (see Jiang, X., et al., Neurosteroid analogues. 9. Conformationally constrained pregnanes: structure-activity studies of 13,24-cyclo-18,21-dinorcholane analogues of the GABA modulatory and anesthetic steroids (3α,5α)- and […]. J. Med. Chem., 46: 5334-48 (2003)—the contents of which are hereby incorporated by reference in their entirety)."}, "[2]": {"target": "T1, rat α1β2γ2L type GABAA receptors expressed in Xenopus laevis oocytes (Rattus norvegicus, UniProt P18508+P62813+P63138, INS375LLRMFSFK)", "T1 construct": "expressed in transfected cells; host or cells: Xenopus laevis oocytes", "T1 sequence (P62813 28-455, stated change not applied)": "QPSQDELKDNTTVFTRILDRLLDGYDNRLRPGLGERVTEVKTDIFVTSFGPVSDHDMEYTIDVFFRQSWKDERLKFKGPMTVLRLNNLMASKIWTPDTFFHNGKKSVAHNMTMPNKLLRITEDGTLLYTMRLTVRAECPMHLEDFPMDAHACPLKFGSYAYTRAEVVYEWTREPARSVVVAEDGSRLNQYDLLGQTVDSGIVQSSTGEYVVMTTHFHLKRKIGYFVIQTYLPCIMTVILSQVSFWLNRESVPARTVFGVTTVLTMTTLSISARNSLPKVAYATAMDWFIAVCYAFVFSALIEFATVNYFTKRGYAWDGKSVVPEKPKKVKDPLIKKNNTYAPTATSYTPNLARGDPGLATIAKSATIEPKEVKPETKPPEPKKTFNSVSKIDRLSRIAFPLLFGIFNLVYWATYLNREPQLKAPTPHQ", "T1 sequence (P63138 26-474, stated change not applied)": "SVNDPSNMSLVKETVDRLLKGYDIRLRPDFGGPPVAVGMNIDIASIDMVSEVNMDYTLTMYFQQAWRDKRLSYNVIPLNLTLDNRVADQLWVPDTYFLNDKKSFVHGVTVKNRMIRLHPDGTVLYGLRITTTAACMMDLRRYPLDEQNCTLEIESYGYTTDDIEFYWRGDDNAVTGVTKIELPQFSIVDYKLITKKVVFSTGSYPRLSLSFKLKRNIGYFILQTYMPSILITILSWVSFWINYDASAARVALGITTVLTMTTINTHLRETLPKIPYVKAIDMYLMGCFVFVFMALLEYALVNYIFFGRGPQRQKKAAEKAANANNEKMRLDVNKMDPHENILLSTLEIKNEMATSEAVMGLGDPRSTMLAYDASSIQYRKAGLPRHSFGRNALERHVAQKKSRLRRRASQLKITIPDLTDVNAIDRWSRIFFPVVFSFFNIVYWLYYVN", "T1 sequence (P18508 with tags, fused parts or gaps INS375LLRMFSFK)": "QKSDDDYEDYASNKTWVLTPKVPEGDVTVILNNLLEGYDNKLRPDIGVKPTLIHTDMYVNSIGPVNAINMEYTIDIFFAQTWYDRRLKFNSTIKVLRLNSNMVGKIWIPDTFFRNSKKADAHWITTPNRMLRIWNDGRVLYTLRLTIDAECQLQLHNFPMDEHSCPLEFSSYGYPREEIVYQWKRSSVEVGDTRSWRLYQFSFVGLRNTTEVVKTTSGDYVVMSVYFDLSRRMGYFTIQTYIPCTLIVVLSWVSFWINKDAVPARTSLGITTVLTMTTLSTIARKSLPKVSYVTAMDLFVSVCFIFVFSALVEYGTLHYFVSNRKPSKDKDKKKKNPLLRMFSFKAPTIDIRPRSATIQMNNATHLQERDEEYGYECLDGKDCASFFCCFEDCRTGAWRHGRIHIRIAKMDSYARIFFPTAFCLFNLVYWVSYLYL", "assay": "Potentiation of GABA-mediated chloride currents, oocyte electrophysiology", "format": "cell-based", "conditions": "± SEM; for Oocyte electrophysiology (gating) 10 μM: direct current gated by 10 μM compound in absence of GABA, ratio compound only current/2 μM GABA current; for Oocyte electrophysiology 0.1 μM: ratio of currents in presence/absence of 0.1 μM compound; for Oocyte electrophysiology 0.1 μM / Oocyte electrophysiology 1.0 μM / Oocyte electrophysiology 10 μM: 2 μM GABA, N≥4; for Oocyte electrophysiology 1.0 μM: ratio of currents in presence/absence of 1.0 μM compound; for Oocyte electrophysiology 10 μM: ratio of currents in presence/absence of 10 μM compound", "procedure": "The compounds of the present disclosure were evaluated for the ability to potentiate chloride currents mediated by 2 μM GABA at rat α1β2γ2L type GABAA receptors expressed in Xenopus laevis oocytes and the results are shown in Table 2.\nThe GABA concentration used for the control response was 2 μM. Each compound was evaluated on at least four different oocytes at the concentrations indicated, and the results reported are the ratio of currents measured in the presence/absence of added compound. Gating represents direct current gated by 10 μM compound in the absence of GABA, and this current is reported as the ratio of compound only current/2 μM GABA current. Error limits are calculated as standard error of the mean (N≥4). Methods used are known in the art (see Jiang, X., et al.)."}, "tadpole": {"tested_on": "tadpole", "assay": "Tadpole loss of righting reflex (LRR) and loss of swimming reflex (LSR)", "format": "in vivo", "conditions": "± SEM", "procedure": "Table 3 discloses the anesthetic effects of the compounds of the present disclosure. In particular, the anesthetic effect of the compounds of the present disclosure on Loss of Righting Reflex (LRR) and Loss of Swimming Reflex (LSR).\nMethods used are known in the art (see Jiang, X., et al.). Error limits are calculated as standard error of the mean (N=10 or more animals at each of five or more different concentrations)."}, "[3]": {"conditions": "loss of righting reflex, read-out: Tadpole LRR EC50"}, "[4]": {"conditions": "loss of swimming reflex, read-out: Tadpole LSR EC50"}},
  "note": "Read-outs that look alike come from different tables or passages of the source.",
  "data": [
    {"smiles": "C[C@@]12CC[C@H]3C[C@H]4C[C@H](O)CC[C@@H]4C[C@@H]3[C@H]1CCC2=O", "note": "[MQ-64, (3aR,5aS,6aS,8R,10aR,11aS,11bR)-Hexadecahydro-8-hydroxy-3a-methyl-3H-cyclopent[a]anthracen-3-one]", "values": [
      {"measurement": "melting point", "value": "152 to 154", "unit": "°C"},
      {"measurement": "IC50", "setting": "[1]", "value": "346 ± 33", "unit": "nM"},
      {"measurement": "Oocyte electrophysiology (gating) 10 μM", "setting": "[2]", "value": "0.04 ± 0.03"},
      {"measurement": "Oocyte electrophysiology 0.1 μM", "setting": "[2]", "value": "0.98 ± 0.02"},
      {"measurement": "Oocyte electrophysiology 1.0 μM", "setting": "[2]", "value": "2.21 ± 0.17"},
      {"measurement": "Oocyte electrophysiology 10 μM", "setting": "[2]", "value": "8.81 ± 1.87"},
      {"measurement": "EC50", "setting": "tadpole; [3]", "value": "3080 ± 10", "unit": "nM"},
      {"measurement": "Tadpole LSR EC50", "setting": "tadpole; loss of swimming reflex", "value": "None"}
    ]},
    {"smiles": "C[C@@]12CC[C@H]3C[C@H]4C[C@H](O)CC[C@@H]4C[C@@H]3[C@H]1CC[C@]21CO1", "note": "[MQ-65, (2′R,3R,3aR,5aS,6aS,8R,10aR,11aS,11bR)-Hexadecahydro-3a-methyl-spiro[3H-cyclopent[a]anthracene-3,2′-oxiran]-8-ol]", "values": [
      {"measurement": "melting point", "value": "143 to 145", "unit": "°C"},
      {"measurement": "IC50", "setting": "[1]", "value": "251 ± 66", "unit": "nM"},
      {"measurement": "Oocyte electrophysiology (gating) 10 μM", "setting": "[2]", "value": "0.02 ± 0.0"},
      {"measurement": "Oocyte electrophysiology 0.1 μM", "setting": "[2]", "value": "1.27 ± 0.04"},
      {"measurement": "Oocyte electrophysiology 1.0 μM", "setting": "[2]", "value": "2.94 ± 0.28"},
      {"measurement": "Oocyte electrophysiology 10 μM", "setting": "[2]", "value": "6.86 ± 1.34"},
      {"measurement": "EC50", "setting": "tadpole; [3]", "value": "2090 ± 120", "unit": "nM"},
      {"measurement": "EC50", "setting": "tadpole; [4]", "value": "5480 ± 20", "unit": "nM"}
    ]},
    {"smiles": "C[C@]12CC[C@@H]3C[C@@H]4C[C@@H](O)CC[C@H]4C[C@H]3[C@@H]1CCC2=O", "note": "[MQ-74, (3aS,5aR,6aR,8S,10aS,11aR,11bS)-Hexadecahydro-8-hydroxy-3a-methyl-cyclopent[a]anthracen-3-one]", "values": [
      {"measurement": "melting point", "value": "152 to 154", "unit": "°C"},
      {"measurement": "IC50", "setting": "[1]", "value": 1190, "unit": "nM"},
      {"measurement": "Oocyte electrophysiology (gating) 10 μM", "setting": "[2]", "value": "−0.01 ± 0.04"},
      {"measurement": "Oocyte electrophysiology 0.1 μM", "setting": "[2]", "value": "0.80 ± 0.06"},
      {"measurement": "Oocyte electrophysiology 1.0 μM", "setting": "[2]", "value": "1.00 ± 0.0"},
      {"measurement": "Oocyte electrophysiology 10 μM", "setting": "[2]", "value": "3.88 ± 0.56"},
      {"measurement": "EC50", "setting": "tadpole; [3]", "value": "3220 ± 30", "unit": "nM"},
      {"measurement": "EC50", "setting": "tadpole; [4]", "value": "> 10000", "unit": "nM"}
    ]},
    {"smiles": "C[C@]12CC[C@@H]3C[C@@H]4C[C@@H](O)CC[C@H]4C[C@H]3[C@@H]1CC[C@@]21CO1", "note": "[MQ-75, (2′S,3S,3aS,5aR,6aR,8S,10aS,11aR,11bS)-Hexadecahydro-3a-methyl-spiro[3H-cyclopent[a]anthracene-3,2′-oxiran]-8-ol]", "values": [
      {"measurement": "melting point", "value": "140 to 142", "unit": "°C"},
      {"measurement": "IC50", "setting": "[1]", "value": "226 ± 2", "unit": "nM"},
      {"measurement": "Oocyte electrophysiology (gating) 10 μM", "setting": "[2]", "value": "0.13 ± 0.04"},
      {"measurement": "Oocyte electrophysiology 0.1 μM", "setting": "[2]", "value": "1.36 ± 0.03"},
      {"measurement": "Oocyte electrophysiology 1.0 μM", "setting": "[2]", "value": "7.67 ± 0.71"},
      {"measurement": "Oocyte electrophysiology 10 μM", "setting": "[2]", "value": "18.86 ± 1.99"},
      {"measurement": "EC50", "setting": "tadpole; [3]", "value": "260 ± 40", "unit": "nM"},
      {"measurement": "EC50", "setting": "tadpole; [4]", "value": 950, "unit": "nM"}
    ]},
    {"smiles": "C[C@]12CC[C@@H]3C[C@@H]4C[C@@H](O)CC[C@H]4C[C@H]3[C@@H]1CC=C2C#N", "note": "[MQ-76, (3aS,5aR,6aR,8S,10aS,11aR,11bS)-8-Hydroxy-3a-methyl-3a,4,5,5a,6,6a,7,8,9,10,10a,11,11a,11b-Tetradecahydro-1H-cyclopent[a]anthracene-3-carbonitrile]", "values": [
      {"measurement": "melting point", "value": "164 to 166", "unit": "°C"},
      {"measurement": "IC50", "setting": "[1]", "value": "574 ± 142", "unit": "nM"},
      {"measurement": "Oocyte electrophysiology (gating) 10 μM", "setting": "[2]", "value": "0.31 ± 0.30"},
      {"measurement": "Oocyte electrophysiology 0.1 μM", "setting": "[2]", "value": "0.95 ± 0.20"},
      {"measurement": "Oocyte electrophysiology 1.0 μM", "setting": "[2]", "value": "2.08 ± 0.16"},
      {"measurement": "Oocyte electrophysiology 10 μM", "setting": "[2]", "value": "9.43 ± 0.77"},
      {"measurement": "EC50", "setting": "tadpole; [3]", "value": "390 ± 10", "unit": "nM"},
      {"measurement": "EC50", "setting": "tadpole; [4]", "value": "1730 ± 30", "unit": "nM"}
    ]},
    {"smiles": "C[C@]12CC[C@@H]3C[C@@H]4C[C@@H](O)CC[C@H]4C[C@H]3[C@@H]1CC[C@@H]2C#N", "note": "[MQ-77, (3S,3aS,5aR,6aR,8S,10aS,11aR,11bS)-Hexadecahydro-8-hydroxy-3a-methyl-cyclopent[a]anthracene-3-carbonitrile]", "values": [
      {"measurement": "IC50", "setting": "[1]", "value": "400 ± 118", "unit": "nM"},
      {"measurement": "Oocyte electrophysiology (gating) 10 μM", "setting": "[2]", "value": "0.02 ± 0.09"},
      {"measurement": "Oocyte electrophysiology 0.1 μM", "setting": "[2]", "value": "1.03 ± 0.10"},
      {"measurement": "Oocyte electrophysiology 1.0 μM", "setting": "[2]", "value": "3.65 ± 0.39"},
      {"measurement": "Oocyte electrophysiology 10 μM", "setting": "[2]", "value": "14.80 ± 1.53"},
      {"measurement": "EC50", "setting": "tadpole; [3]", "value": "590 ± 70", "unit": "nM"},
      {"measurement": "EC50", "setting": "tadpole; [4]", "value": "1730 ± 40", "unit": "nM"}
    ]},
    {"smiles": "C[C@@]12CC[C@H]3C[C@H]4C[C@H](O)CC[C@@H]4C[C@@H]3[C@H]1CC=C2C#N", "note": "[MQ-81, (3aR,5aS,6aS,8R,10aR,11aS,11bR)-8-Hydroxy-3a-methyl-3a,4,5,5a,6,6a,7,8,9,10,10a,11,11a,11b-Tetradecahydro-1H-cyclopent[a]anthracene-3-carbonitrile]", "values": [
      {"measurement": "melting point", "value": "165 to 167", "unit": "°C"},
      {"measurement": "IC50", "setting": "[1]", "value": "174 ± 14", "unit": "nM"},
      {"measurement": "Oocyte electrophysiology (gating) 10 μM", "setting": "[2]", "value": "0.09 ± 0.01"},
      {"measurement": "Oocyte electrophysiology 0.1 μM", "setting": "[2]", "value": "1.37 ± 0.14"},
      {"measurement": "Oocyte electrophysiology 1.0 μM", "setting": "[2]", "value": "5.69 ± 0.17"},
      {"measurement": "Oocyte electrophysiology 10 μM", "setting": "[2]", "value": "18.39 ± 0.70"},
      {"measurement": "EC50", "setting": "tadpole; [3]", "value": "770 ± 40", "unit": "nM"},
      {"measurement": "EC50", "setting": "tadpole; [4]", "value": "1730 ± 40", "unit": "nM"}
    ]},
    {"smiles": "C[C@@]12CC[C@H]3C[C@H]4C[C@H](O)CC[C@@H]4C[C@@H]3[C@H]1CC(=O)C2", "note": "[MQ-82, (3aS,5aS,6aS,8R,10aR,11aS,11bR)-8-Hydroxy-3a-methyl-hexadecahydro-2H-cyclopenta[a]anthracen-2-one]", "values": [
      {"measurement": "melting point", "value": "145 to 147", "unit": "°C"},
      {"measurement": "IC50", "setting": "[1]", "value": 2680, "unit": "nM"},
      {"measurement": "Oocyte electrophysiology (gating) 10 μM", "setting": "[2]", "value": "0.19 ± 0.17"},
      {"measurement": "Oocyte electrophysiology 0.1 μM", "setting": "[2]", "value": "0.80 ± 0.04"},
      {"measurement": "Oocyte electrophysiology 1.0 μM", "setting": "[2]", "value": "0.83 ± 0.06"},
      {"measurement": "Oocyte electrophysiology 10 μM", "setting": "[2]", "value": "2.43 ± 0.34"},
      {"measurement": "EC50", "setting": "tadpole; [3]", "value": "3110 ± 10", "unit": "nM"},
      {"measurement": "EC50", "setting": "tadpole; [4]", "value": 7930, "unit": "nM"}
    ]}
  ]
}
